Patent publication US20100004240A1, “Indole Compounds” (Glaxo Group Limited, priority 2006, published 2010)
Where a name gives a salt, the structure may show the parent alone.

Legend:
[1] = biological target: T1, human prostanoid EP1 receptor (Homo sapiens, UniProt P34995); experiment: binding assay for the human prostanoid EP1 receptor (competition with [3H]-PGE2); settings: [3H]-PGE2 competition, CHO-K1 cell membranes expressing human EP1; averages of a number of experiments; read-out: pIC50 value (converted)
T1 construct: expressed in transfected cells; host or cells: CHO-K1 cells, membrane fraction
T1 sequence (P34995 1-402): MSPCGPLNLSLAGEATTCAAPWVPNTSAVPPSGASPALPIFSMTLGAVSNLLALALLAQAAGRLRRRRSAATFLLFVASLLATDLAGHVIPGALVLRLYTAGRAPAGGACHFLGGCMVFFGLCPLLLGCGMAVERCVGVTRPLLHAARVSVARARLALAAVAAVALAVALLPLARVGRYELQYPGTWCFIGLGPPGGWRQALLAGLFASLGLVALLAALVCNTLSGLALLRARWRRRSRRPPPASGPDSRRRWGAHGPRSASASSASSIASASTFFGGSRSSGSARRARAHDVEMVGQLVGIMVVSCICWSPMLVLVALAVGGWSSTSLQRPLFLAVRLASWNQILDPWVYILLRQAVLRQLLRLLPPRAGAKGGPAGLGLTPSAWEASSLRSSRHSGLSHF
Method: Competition assay using [^3H]-PGE2.
Compound potencies are determined using a radioligand binding assay. In this assay compound potencies are determined from their ability to compete with tritiated prostaglandin E2 ([^3H]-PGE2) for binding to the human EP1 receptor.
This assay utilises Chinese hamster ovary-K1 (CHO-K1) cells into which a stable vector containing the EP1 cDNA has previously been transfected. Cells are cultured in suitable flasks containing culture medium such as DMEM:F-12 supplemented with 10% v/v foetal calf serum, 2 mM L-glutamine, 0.25 mg/ml geneticin, 10 μg/ml puromycin and 10 μM indomethacin.
Cells are detached from the culture flasks by incubation in calcium and magnesium free phosphate buffered saline containing 1 mM disodium ethylenediaminetetraacetic acid (Na2EDTA) and 10 μM indomethacin for 5 min. The cells are isolated by centrifugation at 250×g for 5 mins and suspended in an ice cold buffer such as 50 mM Tris, 1 mM Na2EDTA, 140 mM NaCl, 10 μM indomethacin (pH 7.4). The cells are homogenised using a Polytron tissue disrupter (2×10s burst at full setting), centrifuged at 48,000×g for 20 mins and the pellet containing the membrane fraction is washed (optional) three times by suspension and centrifugation at 48,000×g for 20 mins. The final membrane pellet is suspended in an assay buffer such as 10 mM 2-[N-morpholino]ethanesulphonic acid, 1 mM Na2EDTA, 10 mM MgCl2 (pH 6). Aliquots are frozen at −80° C. until required.
For the binding assay the cell membranes, competing compounds and [^3H]-PGE2 (3 nM final assay concentration) are incubated in a final volume of 100 μl for 30 min at 30^O C. All reagents are prepared in assay buffer. Reactions are terminated by rapid vacuum filtration over GF/B filters using a Brandell cell harvester. The filters are washed with ice cold assay buffer, dried and the radioactivity retained on the filters is measured by liquid scintillation counting in Packard TopCount scintillation counter.
The data are analysed using non linear curve fitting techniques to determine the concentration of compound producing 50% inhibition of specific binding (IC50).

human EP1 receptor = biological target: T2, human EP1 receptor (Homo sapiens, UniProt P34995); experiment: human EP1 calcium mobilisation assay; format: cell-based; settings: for Ki: antagonism of PGE2-induced calcium mobilisation, CHO-K1 cells expressing human EP1, averages of a number of experiments, read-out: functional pKi value (converted)
T2 construct: expressed in transfected cells; host or cells: CHO-K1 cells
T2 sequence (P34995 1-402): T1 sequence (P34995 1-402)
Method: Briefly, the antagonist properties of compounds are assessed by their ability to inhibit the mobilisation of intracellular calcium ([Ca^2+]i) in response to activation of EP1 or EP3 receptors by the natural agonist hormone prostaglandin E2 (PGE2). Increasing concentrations of antagonist reduce the amount of calcium that a given concentration of PGE2 can mobilise. The net effect is to displace the PGE2 concentration-effect curve to higher concentrations of PGE2. The amount of calcium produced is assessed using a calcium-sensitive fluorescent dye such as Fluo-4, AM and a suitable instrument such as a Fluorimetric Imaging Plate Reader (FLIPR). Increasing amounts of [Ca^2+]i produced by receptor activation increase the amount of fluorescence produced by the dye and give rise to an increasing signal. The signal may be detected using the FLIPR instrument and the data generated may be analysed with suitable curve-fitting software.
The human EP1 or EP3 calcium mobilisation assay (hereafter referred to as ‘the calcium assay’) utilises Chinese hamster ovary-K1 (CHO-K1) cells into which a stable (pClN; BioTechniques 20 (1996): 102-110) vector containing either EP1 or EP3 cDNA has previously been transfected. Cells are cultured in suitable flasks containing culture medium such as DMEM:F-12 supplemented with 10% v/v foetal calf serum, 2 mM L-glutamine, 0.25 mg/ml geneticin, 100 μM flurbiprofen and 10 μg/ml puromycin.
For assay, cells are harvested using a proprietary reagent that dislodges cells such as Versene. Cells are re-suspended in a suitable quantity of fresh culture media for introduction into a 384-well plate. Following incubation for 24 hours at 37° C. the culture media is replaced with a medium containing Fluo-4 and the detergent pluronic acid, and a further incubation takes place. Concentrations of compounds are then added to the plate in order to construct concentration-effect curves. This may be performed on the FLIPR in order to assess the agonist properties of the compounds. Concentrations of PGE2 are then added to the plate in order to assess the antagonist properties of the compounds.
The data so generated may be analysed by means of a computerised curve-fitting routine. The concentration of compound that elicits a half-maximal inhibition of the calcium mobilisation induced by PGE2 (pIC50) may then be estimated.

| Compound | IC50 [1] | activity in the calcium mobilisation assay (human EP1 receptor; human EP1, CHO-K1 cells) | Ki (human EP1 receptor) |
| --- | --- | --- | --- |
| O=C(NC1CCOCC1)c1coc(-c2cn(CC3CC3)c3ccc(Cl)cc23)n1 [Example 1, 2-[5-Chloro-1-(cyclopropylmethyl)-1H-indol-3-yl]-N-(tetrahydro-2H-pyran-4-yl)-1,3-oxazole-4-carboxamide] | ≤ 1000 nM | inactive |  |
| O=C(NN1CCOCC1)c1coc(-c2cn(CC3CC3)c3ccc(Cl)cc23)n1 [Example 2, 2-[5-Chloro-1-(cyclopropylmethyl)-1H-indol-3-yl]-N-4-morpholinyl-1,3-oxazole-4-carboxamide] | ≤ 316 nM |  | ≤ 1000 nM |
| O=C(NN1CCOCC1)c1coc(-c2cn(C3CCCC3)c3ccc(Cl)cc23)n1 [Example 3, 2-(5-Chloro-1-cyclopentyl-1H-indol-3-yl)-N-4-morpholinyl-1,3-oxazole-4-carboxamide] | ≤ 316 nM |  | ≤ 316 nM |
| O=C(c1coc(-c2cn(C3CCCC3)c3ccc(Cl)cc23)n1)N1CCOCC1 [Example 4, 5-Chloro-1-cyclopentyl-3-[4-(4-morpholinylcarbonyl)-1,3-oxazol-2-yl]-1H-indole] | ≤ 1000 nM |  | ≤ 1000 nM |
| CC(C)Cn1cc(-c2nc(C(=O)Nc3cccnc3)co2)c2cc(Cl)ccc21 [Example 5, 2-[5-Chloro-1-(2-methylpropyl)-1H-indol-3-yl]-N-3-pyridinyl-1,3-oxazole-4-carboxamide] | ≤ 316 nM |  | ≤ 316 nM |
| CC(C)Cn1cc(-c2nc(C(=O)Nc3ccccn3)co2)c2cc(Cl)ccc21 [Example 6, 2-[5-Chloro-1-(2-methylpropyl)-1H-indol-3-yl]-N-2-pyridinyl-1,3-oxazole-4-carboxamide] |  |  | ≤ 316 nM |
| CC(C)Cn1cc(-c2nc(C(=O)NCC3CCOCC3)co2)c2cc(Cl)ccc21 [Example 7, 2-[5-Chloro-1-(2-methylpropyl)-1H-indol-3-yl]-N-(tetrahydro-2H-pyran-4-ylmethyl)-1,3-oxazole-4-carboxamide] | ≤ 316 nM |  | ≤ 316 nM |
| CC(C)Cn1cc(-c2nc(C(N)=O)co2)c2cc(Cl)ccc21 [Example 8, 2-[5-Chloro-1-(2-methylpropyl)-1H-indol-3-yl]-1,3-oxazole-4-carboxamide] | ≤ 316 nM |  | ≤ 316 nM |
| CC(C)Cn1cc(-c2nc(-c3nc4ccccc4[nH]3)co2)c2cc(Cl)ccc21 [Example 9, 2-{2-[5-Chloro-1-(2-methylpropyl)-1H-indol-3-yl]-1,3-oxazol-4-yl}-1H-benzimidazole hydrochloride] | ≤ 316 nM |  | ≤ 316 nM |
| CC(C)Cn1cc(-c2nc(-c3nc4ncccc4[nH]3)co2)c2cc(Cl)ccc21 [Example 10, 2-{2-[5-Chloro-1-(2-methylpropyl)-1H-indol-3-yl]-1,3-oxazol-4-yl}-1H-imidazo[4,5-b]pyridine] | ≤ 316 nM |  | ≤ 1000 nM |
| CC(C)Cn1cc(-c2nc(-c3nc4cc(CO)ccc4[nH]3)co2)c2cc(Cl)ccc21 [Example 11, (2-{2-[5-Chloro-1-(2-methylpropyl)-1H-indol-3-yl]-1,3-oxazol-4-yl}-1H-benzimidazol-5-yl)methanol] | ≤ 316 nM |  | ≤ 316 nM |
| CC(C)Cn1cc(-c2nc(-c3nc4ccc(CN5CCCCC5)cc4[nH]3)co2)c2cc(Cl)ccc21 [Example 12, 2-{2-[5-Chloro-1-(2-methylpropyl)-1H-indol-3-yl]-1,3-oxazol-4-yl}-5-(1-piperidinylmethyl)-1H-benzimidazole dihydrochloride] | ≤ 316 nM |  |  |
| CC(C)Cn1cc(-c2nc(-c3nc4ccc(CN5CCCC5)cc4[nH]3)co2)c2cc(Cl)ccc21 [Example 13, 2-{2-[5-Chloro-1-(2-methylpropyl)-1H-indol-3-yl]-1,3-oxazol-4-yl}-5-(1-pyrrolidinylmethyl)-1H-benzimidazole dihydrochloride] | ≤ 316 nM |  |  |
| CCNCc1ccc2nc(-c3coc(-c4cn(CC(C)C)c5ccc(Cl)cc45)n3)[nH]c2c1 [Example 14, [(2-{2-[5-Chloro-1-(2-methylpropyl)-1H-indol-3-yl]-1,3-oxazol-4-yl}-1H-benzimidazol-5-yl)methyl]ethylamine dihydrochloride] | ≤ 1000 nM |  |  |
